One assay has as its target T1, Monoglyceride lipase (Mus musculus, UniProt O35678).
T1 sequence (O35678 whole entry): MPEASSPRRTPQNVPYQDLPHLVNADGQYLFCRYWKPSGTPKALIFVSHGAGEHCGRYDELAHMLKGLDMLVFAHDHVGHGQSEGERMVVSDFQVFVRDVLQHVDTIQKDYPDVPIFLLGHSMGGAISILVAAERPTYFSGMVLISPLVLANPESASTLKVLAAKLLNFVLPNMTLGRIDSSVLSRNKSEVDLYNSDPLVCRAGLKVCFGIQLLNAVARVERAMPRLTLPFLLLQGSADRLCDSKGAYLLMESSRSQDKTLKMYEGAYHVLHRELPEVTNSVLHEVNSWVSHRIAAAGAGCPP
Kind of assay: Inhibition of FP-rhodamine probe binding to MGLL in mouse brain membrane proteome preincubated for 1 hr followed by FP-rhodamine addition and measured after 30 mins by SDS-PAGE based fluorescence assay. The assay is classed as cell membranes.

Assay [1] concerns the target T2, Monoacylglycerol lipase ABHD6 (Mus musculus, UniProt Q8R2Y0).
T2 sequence (Q8R2Y0 whole entry): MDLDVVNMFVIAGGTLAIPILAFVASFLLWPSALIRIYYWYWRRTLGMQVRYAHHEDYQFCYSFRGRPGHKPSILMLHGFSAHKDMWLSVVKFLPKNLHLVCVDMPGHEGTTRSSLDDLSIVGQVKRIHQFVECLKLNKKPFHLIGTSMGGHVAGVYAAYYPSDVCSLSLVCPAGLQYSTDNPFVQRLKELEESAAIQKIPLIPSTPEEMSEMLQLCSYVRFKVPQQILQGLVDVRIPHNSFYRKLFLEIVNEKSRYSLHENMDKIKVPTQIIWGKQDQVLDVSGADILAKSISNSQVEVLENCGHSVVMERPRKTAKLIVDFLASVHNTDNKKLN
Kind of assay: Inhibition of FP-rhodamine probe binding to ABHD6 in mouse brain membrane proteome preincubated for 1 hr followed by FP-rhodamine addition and measured after 30 mins by SDS-PAGE based fluorescence assay. The assay is classed as cell membranes.

The nature of assay [2]: Inhibition of recombinant rat FAAH deltaTM mutant expressed in Escherichia coli using 14C-labeled oleamide as substrate preincubated for 3 hrs followed by substrate addition and measured by TLC based Dixon-plot analysis. The following applies: read-out: Ki(app).
The species entered for the next assay is Mus musculus. Kind of assay: Selectivity ratio of IC50 for inhibition of FP-rhodamine probe binding to ABHD6 in mouse brain membrane proteome to IC50 for inhibition of FP-rhodamine probe binding to MGLL in mouse brain membrane proteome. The assay is classed as cell membranes.
Assay [3] concerns the target T3, Fatty-acid amide hydrolase 1 (Mus musculus, UniProt O08914).
T3 sequence (O08914 whole entry): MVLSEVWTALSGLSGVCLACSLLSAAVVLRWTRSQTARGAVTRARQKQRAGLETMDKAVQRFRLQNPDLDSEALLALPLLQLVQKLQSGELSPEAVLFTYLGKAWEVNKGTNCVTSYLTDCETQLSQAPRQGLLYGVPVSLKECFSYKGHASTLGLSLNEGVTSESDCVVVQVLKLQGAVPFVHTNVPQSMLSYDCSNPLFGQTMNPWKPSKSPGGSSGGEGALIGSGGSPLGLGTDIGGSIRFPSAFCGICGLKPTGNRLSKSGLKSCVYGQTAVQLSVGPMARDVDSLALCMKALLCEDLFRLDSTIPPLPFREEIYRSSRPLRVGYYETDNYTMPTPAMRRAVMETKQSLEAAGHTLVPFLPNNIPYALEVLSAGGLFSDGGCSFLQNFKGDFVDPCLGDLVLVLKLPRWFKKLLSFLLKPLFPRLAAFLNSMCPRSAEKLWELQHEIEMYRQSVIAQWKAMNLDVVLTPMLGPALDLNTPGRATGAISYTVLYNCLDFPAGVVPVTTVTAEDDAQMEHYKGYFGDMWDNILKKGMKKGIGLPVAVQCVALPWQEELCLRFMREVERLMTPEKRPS
Kind of assay: Inhibition of FP-rhodamine probe binding to FAAH in mouse brain membrane proteome preincubated for 1 hr followed by FP-rhodamine addition and measured after 30 mins by SDS-PAGE based fluorescence assay. The assay is classed as cell membranes.

Assay [4] concerns the target T4, Neutral cholesterol ester hydrolase 1 (Mus musculus, UniProt Q8BLF1).
T4 sequence (Q8BLF1 whole entry): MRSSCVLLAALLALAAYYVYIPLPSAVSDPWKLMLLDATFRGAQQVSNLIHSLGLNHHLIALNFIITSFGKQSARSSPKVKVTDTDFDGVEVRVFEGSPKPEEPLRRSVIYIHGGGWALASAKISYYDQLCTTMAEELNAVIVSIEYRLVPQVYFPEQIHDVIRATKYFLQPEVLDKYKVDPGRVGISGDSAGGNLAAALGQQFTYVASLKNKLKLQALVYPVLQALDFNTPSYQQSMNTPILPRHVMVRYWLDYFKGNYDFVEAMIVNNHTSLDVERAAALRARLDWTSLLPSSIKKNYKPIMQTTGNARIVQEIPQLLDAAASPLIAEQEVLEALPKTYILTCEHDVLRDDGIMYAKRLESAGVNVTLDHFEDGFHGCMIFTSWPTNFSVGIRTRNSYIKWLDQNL
Kind of assay: Inhibition of FP-rhodamine probe binding to KIAA1363 in mouse brain membrane proteome preincubated for 1 hr followed by FP-rhodamine addition and measured after 30 mins by SDS-PAGE based fluorescence assay. The assay is classed as cell membranes.

The species entered for assay [5] is Rattus norvegicus. As to the kind of experiment: Inhibition of recombinant rat FAAH deltaTM mutant expressed in Escherichia coli at 100 nM using 14C-labeled oleamide as substrate preincubated for 3 hrs by TLC method relative to control.
The species named for assay [6] is Rattus norvegicus. Kind of assay: Irreversible inhibition of recombinant rat FAAH deltaTM mutant expressed in Escherichia coli at 100 nM using 14C-labeled oleamide as substrate preincubated for 3 hrs followed by dialysis for 18 hrs.
The species entered for assay [7] is Rattus norvegicus. Kind of assay: Time-dependent irreversible inhibition of recombinant rat FAAH deltaTM mutant expressed in Escherichia coli using 14C-labeled oleamide as substrate by TLC method.
The species named for assay [8] is Rattus norvegicus. Kind of assay: Irreversible inhibition of recombinant rat FAAH deltaTM mutant expressed in Escherichia coli at 10 nM using 14C-labeled oleamide as substrate preincubated for 3 hrs followed by dialysis for 18 hrs.
The species named for assay [9] is Rattus norvegicus. As to the kind of experiment: Inhibition of recombinant rat FAAH deltaTM mutant expressed in Escherichia coli at 10 nM using 14C-labeled oleamide as substrate preincubated for 3 hrs by TLC method relative to control.
Assay [10] is filed under the species Rattus norvegicus. As to the kind of experiment: Inhibition of recombinant rat FAAH deltaTM mutant expressed in Escherichia coli at 50 nM using 14C-labeled oleamide as substrate preincubated for 3 hrs by TLC method relative to control.
The species entered for assay [11] is Rattus norvegicus. As to the kind of experiment: Irreversible inhibition of recombinant rat FAAH deltaTM mutant expressed in Escherichia coli at 50 nM using 14C-labeled oleamide as substrate preincubated for 3 hrs followed by dialysis for 18 hrs.

The source made the active and inactive calls. No cut-off for these calls is given here.

As a reminder, the IC50 is the point on the concentration scale where inhibition reaches its midpoint. High values mean weaker potency, low ones greater potency. For the compound `N#Cc1cnn(C(=O)N2CCN(C(c3ccc(OCc4ccccc4)cc3)c3ccc(OCc4ccccc4)cc3)CC2)c1`, the IC50 on Monoglyceride lipase is 0.02 µM; in [1], 130 µM; in assay [3], 790 µM; in assay [4], above 100 µM. Moreover, in assay [2], the Ki came to 25 µM. In addition, in the assay filed under Mus musculus, the Ratio IC50 is above 1000.

For orientation: inhibition means the drop in the measured response relative to a control, in per cent. For the compound `Cc1cnn(C(=O)N2CCN(Cc3ccc(OCc4ccccc4)cc3)CC2)c1`, the inhibition in the assay filed under Rattus norvegicus [5] was above 70%. The inhibition result in the assay filed under Rattus norvegicus [6] is “Active”. Also, the IC50 at Monoglyceride lipase is 0.2 µM; in assay [1] it was 0.01 µM; in assay [3], 0.65 µM; in assay [4], above 100 µM. The Ki in assay [2] amounted to 0.1 µM. Also, the TDI entry in the assay filed under Rattus norvegicus [7] is “Active”.

Consider `N#Cc1cnn(C(=O)N2CCN(Cc3ccc(OCc4ccccc4)cc3)CC2)c1`, for which the IC50 is below 0.01 µM at Monoglyceride lipase, below 0.01 µM in assay [1], below 0.01 µM in [3] and above 100 µM in [4]. The inhibition entry in the assay filed under Rattus norvegicus [8] was “Active”. In addition, the Ki in [2] was 0.00016 µM. The TDI entry in the assay filed under Rattus norvegicus [7] was “Active”. For the same compound, the inhibition in the assay filed under Rattus norvegicus [9] is above 70%.

As for `N#Cc1cnn(C(=O)N2CCN(Cc3ccc4ccccc4c3)CC2)c1`, the IC50 at Monoglyceride lipase was 0.055 µM; in [1], below 0.01 µM; in [3], below 0.01 µM; in [4] it was above 100 µM. Moreover, in the assay filed under Rattus norvegicus [8], the inhibition result is “Active”. For the same compound, the Ki in assay [2] is 0.00016 µM. The inhibition in the assay listed under Rattus norvegicus [9] is above 70%.

In the case of `O=C(N1CCN(Cc2ccc(OCc3ccccc3)cc2)CC1)n1cccn1`, the IC50 at Monoglyceride lipase was 0.45 µM; in [1], 0.22 µM; in assay [3], 0.06 µM; in [4] it was above 100 µM. Also, the Ki in [2] is 0.01 µM. The inhibition in the assay filed under Rattus norvegicus [10] is above 70%. Besides, in the assay filed under Rattus norvegicus [7], the TDI entry was “Active”. The inhibition entry in the assay filed under Rattus norvegicus [11] is “Active”.

For the compound `N#Cc1cnn(C(=O)N2CCN(C(c3ccc4ccccc4c3)c3ccc4ccccc4c3)CC2)c1`, the IC50 on Monoglyceride lipase is 0.008 µM; in [1] it was 0.56 µM; in assay [3], above 100 µM; in [4], above 100 µM. In addition, the Ratio IC50 in the assay listed under Mus musculus was determined as 70.

With `O=C(N1CCN(Cc2ccc3ccccc3c2)CC1)n1cccn1`, the IC50 on Monoglyceride lipase is 0.96 µM; in [1] it was 0.01 µM; in assay [3] it was 0.09 µM; in assay [4], above 100 µM. The Ki in assay [2] came to 0.0098 µM. The inhibition in the assay listed under Rattus norvegicus [10] is above 70%. In addition, the inhibition result in the assay listed under Rattus norvegicus [11] was “Active”.

Source of the values: ChEMBL document CHEMBL4316626, “N-Acyl pyrazoles: Effective and tunable inhibitors of serine hydrolases” (Bioorg Med Chem, 2019).
